Experimental data taken from patent publication US20240067651A1 (Biohaven Therapeutics Ltd., priority 2019, published 2024).

How the values were obtained:
Plasma Stability = assay type: in vitro ADME, human
Method: Plasma stability estimates the ability of a compound to remain intact in the blood. For prodrugs that are intended to be hydrolyzed by plasma enzymes a certain level of instability in plasma indicates the compound is probably breaking down to the parent drug. A stability range of 25-75% remaining parent compound after 1 hour in plasma indicates the compound is likely breaking down to the parent drug molecule and a patient will be exposed to this parent molecule.
Assessment of plasma stability was carried out by individual incubations of drug candidates in fresh human plasma at a concentration of 1 μM for 1 hour at 37° C. After which, the samples were de-proteinized by addition of 2 volumes of acetonitrile containing 0.1% formic acid and internal standard, vortex mixed for 2 minutes and centrifuged at 4,000 rpm for 10 minutes to pellet precipitated protein. The resulting supernatant containing the drug candidates was diluted 5-fold with water containing 0.1% formic acid and submitted to LCMS/MS analysis. All determinations were done in triplicate. Plasma stability was expressed as percent of control remaining.
See Pelletier et al. ACS Med. Chem. Lett. 2018, 9, 752-756.

[1] = Stability in Simulated Gastric Fluid (SGF); assay type: in vitro ADME; design: key: % parent compound remaining relative to 0-minute sample
Method: (§1) Simulated gastric fluid (SGF) and Simulated intestinal fluid (SIF) stability are in vitro metrics indicating the ability of a compound to pass through the gastrointestinal tract […] or completely digested. An undigested or nearly undigested compound will usually survive gut transit long enough to be absorbed into the systemic circulation. Greater than 50% remaining intact compound at 1 hour indicates a relatively stable molecule that will likely be absorbed in the gut.
(§2) For each test compound, samples at a final concentration of 2 μg/mL are prepared in respective blank simulated gastric fluid with pepsin (pH 1.2) and simulated intestinal fluid with pancreatin (pH 6.8). All samples are incubated at 37° C. on a 150-rpm orbital shaker, and an aliquot is removed at predetermined time points (0 to 60 minutes). Samples are precipitated with three volumes of acetonitrile containing propranolol as internal standard, and centrifuged for 10 min at 2,000 g before LC-MS/MS analysis of the supernatant solutions. Percent parent compound remaining is determined relative to 0-minute incubation samples. If a sufficient number of time points are available, the degradation half-life is calculated based on the natural log of % compound remaining vs. time plot.

[2] = Stability in Simulated Intestinal Fluid (SIF); assay type: in vitro ADME; design: key: % parent compound remaining relative to 0-minute sample
Method: as §1, §2

[3] = % remaining at 1 h, human plasma, 1 μM, 37° C.
[4] = % remaining at 1 h, SGF with pepsin pH 1.2, 2 μg/mL, 37° C.
[5] = % remaining at 1 h, SIF with pancreatin pH 6.8, 2 μg/mL, 37° C.
[6] = % remaining at 1 h in simulated gastric fluid, the 15th table
[7] = % remaining at 1 h in simulated intestinal fluid, the 15th table
[8] = % remaining at 1 h in human plasma, the 15th table
[9] = bare number, unit or time not given, the 15th table Examples 204-207

SMILES: CC(C)OCCn1c(=S)[nH]c(=O)c2c1ccn2C[C@]1(C(=O)O)CCCN1C(=O)OC(C)(C)C.O=C(O)C(F)(F)F [Example 2, trifluoroacetic acid 1-tert-butyl 2-{4-oxo-1-[2-(propan-2-yloxy)ethyl]-2-sulfanylidene-1H,2H,3H,4H,5H-pyrrolo [3,2-d]pyrimidin-5-yl}methyl(2S)-pyrrolidine-1,2-dicarboxylate]
- human Plasma stability (Plasma Stability; [3]): 73%

SMILES: COc1ccc(CSc2nc(=O)c3[nH]ccc3n2CCOC(C)C)cc1 [Example 74, 2-{[(4-Methoxyphenyl)methyl]sulfanyl}-1-[2-(propan-2-yloxy)ethyl]-1H,4H,5H-pyrrolo[3,2-d]pyrimidin-4-one]
- SGF [1, 4]: 37%
- SIF [2, 5]: 97%
- human Plasma stability (Plasma Stability; [3]): 97%

SMILES: Cc1ccc(S(=O)(=O)n2ccc3c2c(=O)[nH]c(=S)n3CCOC(C)C)cc1C [Example 75, 5-(3,4-Dimethylbenzenesulfonyl)-1-[2-(propan-2-yloxy)ethyl]-2-sulfanyl-1H,4H,5H-pyrrolo[3,2-d]pyrimidin-4-one]
- SGF [1, 4]: 99%
- SIF [2, 5]: 91%
- human Plasma stability (Plasma Stability; [3]): 100%

SMILES: CC(C)OCCn1c(=S)[nH]c(=O)c2c1ccn2S(C)(=O)=O [Example 76, 5-methanesulfonyl-1-[2-(propan-2-yloxy)ethyl]-2-sulfanylidene-1H,2H,3H,4H,5H-pyrrolo[3,2-d]pyrimidin-4-one]
- SGF [1, 4]: 96%
- SIF [2, 5]: 91%
- human Plasma stability (Plasma Stability; [3]): 98%

SMILES: CCS(=O)(=O)n1ccc2c1c(=O)[nH]c(=S)n2CCOC(C)C [Example 77, 5-(ethanesulfonyl)-1-[2-(propan-2-yloxy)ethyl]-2-sulfanylidene-1H,2H,3H,4H,5H-pyrrolo[3,2-d]pyrimidin-4-one]
- SGF [1, 4]: 99%
- SIF [2, 5]: 96%
- human Plasma stability (Plasma Stability; [3]): 98%

SMILES: CC(C)OCCn1c(=S)[nH]c(=O)c2c1ccn2S(=O)(=O)c1ccccc1 [Example 78, 5-(benzenesulfonyl)-1-[2-(propan-2-yloxy)ethyl]-2-sulfanylidene-1H,2H,3H,4H,5H-pyrrolo[3,2-d]pyrimidin-4-one]
- SGF [1, 4]: 100%
- SIF [2, 5]: 80%
- human Plasma stability (Plasma Stability; [3]): 96%

SMILES: CC(C)OCCn1c(=S)[nH]c(=O)c2c1ccn2S(=O)(=O)c1ccccc1F [Example 79, 5-(2-fluorobenzenesulfonyl)-1-[2-(propan-2-yloxy)ethyl]-2-sulfanylidene-1H,2H,3H,4H,5H-pyrrolo[3,2-d]pyrimidin-4-one]
- SGF [1, 4]: 92%
- SIF [2, 5]: 82%
- human Plasma stability (Plasma Stability; [3]): 98%

SMILES: Cc1ccccc1S(=O)(=O)n1ccc2c1c(=O)[nH]c(=S)n2CCOC(C)C [Example 80, 5-(2-methylbenzenesulfonyl)-1-[2-(propan-2-yloxy)ethyl]-2-sulfanylidene-1H,2H,3H,4H,5H-pyrrolo[3,2-d]pyrimidin-4-one]
- SGF [1, 4]: 90%
- SIF [2, 5]: 87%
- human Plasma stability (Plasma Stability; [3]): 99%

SMILES: CC(C)OCCn1c(=S)n2c(=O)c3c1ccn3COC(=O)CCCCCCC(=O)OC2 [Example 134, 16-[2-(Propan-2-yloxy)ethyl]-15-sulfanylidene-3,12-dioxa-1,14,16-triazatricyclo[12.5.2.0^{17,20}]henicosa-17(20),18-diene-4,11,21-trione]
- SGF [1, 4]: 99%
- SIF [2, 5]: 1%
- human Plasma stability (Plasma Stability; [3]): 1%

SMILES: CC(C)OCCn1c2nc(=O)c3c1ccn3COC(=O)CCCCCCC(=O)OCS2 [Example 135, 22-[2-(Propan-2-yloxy)ethyl]-6,15-dioxa-17-thia-4,19,22-triazatricyclo[16.3.1.0^{4,21}]docosa-1(21),2,18-triene-7,14,20-trione]
- SGF [1, 4]: 86%
- SIF [2, 5]: 67%
- human Plasma stability (Plasma Stability; [3]): 67%

SMILES: CC(C)OCCn1c(=S)[nH]c(=O)c2c1ccn2COC(=O)CCCCCCC(=O)OCn1ccc2c1c(=O)[nH]c(=S)n2CCOC(C)C [Example 136, 1,8-Bis({4-oxo-1-[2-(propan-2-yloxy)ethyl]-2-sulfanylidene-1H,2H,3H,4H,5H-pyrrolo[3,2-d]pyrimidin-5-yl}methyl) octanedioate]
- SGF [1, 4]: 77%
- SIF [2, 5]: 2%
- human Plasma stability (Plasma Stability; [3]): 2%

SMILES: CC(C)OCCn1c(=S)[nH]c(=O)c2c1ccn2COC(=O)CCCCCCC(=O)OCCl [Example 137, 1-Chloromethyl 8-{4-oxo-1-[2-(propan-2-yloxy)ethyl]-2-sulfanylidene-1H,2H,3H,4H,5H-pyrrolo[3,2-d]pyrimidin-5-yl}methyl octanedioate]
- SGF [1, 4]: 74%
- SIF [2, 5]: 56%
- human Plasma stability (Plasma Stability; [3]): 1%

SMILES: CC(C)OCCn1c2nc(=O)c3c1ccn3COC(=O)CCC(=O)N1CCC(CC1)C(=O)OCS2 [Example 138, 25-[2-(propan-2-yloxy)ethyl]-3,15-dioxa-5-thia-7,13,20,25-tetraazatetra-cyclo[18.2.2.1^{6,10}.0^{9,13}]penta-cosa-6,9,11-triene-2,8,16,19-tetrone]
- SGF [1, 4]: 100% remaining
- SIF [2, 5]: 98% remaining
- human Plasma stability (Plasma Stability; [3]): 66% remaining

SMILES: CC(C)OCCn1c(=S)n(COC(=O)C2CCNCC2)c(=O)c2c1ccn2COC(=O)CCC(=O)O.O=C(O)C(F)(F)F [Example 139, 4-oxo-4-({4-oxo-3-[(piperidine-4-carbonyloxy)methyl]-1-[2-(propan-2-yloxy)ethyl]-2-sulfanylidene-1H,2H,3H,4H,5H-pyrrolo[3,2-d]pyrimidin-5-yl}methoxy)butanoic acid; trifluoroacetic acid]
- SGF [1, 4]: 99% remaining
- SIF [2, 5]: 98% remaining
- human Plasma stability (Plasma Stability; [3]): 8% remaining

SMILES: CC(C)OCCn1c(=S)n2c(=O)c3c1ccn3COC(=O)CCC(=O)N1CCC(CC1)C(=O)OC2 [Example 140, 19-[2-(propan-2-yloxy)ethyl]-20-sulfanylidene-3,13-dioxa-1,8,15,19-tetraazatetra-cyclo[13.5.2.2^{5,8}.0^{18,22}]tetra-cosa-16,18(22)-diene-4,9,12,21-tetrone]
- SGF [1, 4]: 99% remaining
- SIF [2, 5]: 79% remaining
- human Plasma stability (Plasma Stability; [3]): 10% remaining

SMILES: CCCNC(=O)OCSc1nc(=O)c2[nH]ccc2n1CCOC(C)C [Example 182]
- SGF [1, 6]: 81% @ 1 h
- SIF [2, 7]: 69% @ 1 h
- human Plasma stability (Plasma Stability; [8]): 94% @ 1 h

SMILES: CCCNC(=O)OCSc1nc(=O)c2c(ccn2C(=O)NCCC)n1CCOC(C)C [Example 184]
- SGF [1, 6]: 99% @ 1 h
- SIF [2, 7]: 86% @ 1 h
- human Plasma stability (Plasma Stability; [8]): 95% @ 1 h

SMILES: CCOC(=O)OCSc1nc(=O)c2[nH]ccc2n1CCOC(C)C [Example 201]
- SGF [1, 6]: 100% remaining
- SIF [2, 7]: 43% remaining
- human Plasma stability (Plasma Stability; [8]): 0% remaining

SMILES: CCOC(=O)OCSc1nc(=O)c2c(ccn2CSc2nc(=O)c3[nH]ccc3n2CCOC(C)C)n1CCOC(C)C [Example 202]
- SGF [1, 6]: 45% remaining
- SIF [2, 7]: 52% remaining
- human Plasma stability (Plasma Stability; [8]): 3% remaining

SMILES: CC(C)OCCn1c(SCOC(=O)Oc2ccccc2)nc(=O)c2[nH]ccc21 [Example 205]
- SGF [1, 9]: 61
- SIF [2, 9]: 10
- human Plasma stability (Plasma Stability; [8]): 2% remaining

SMILES: CCCCCCCOC(=O)OCSc1nc(=O)c2c(ccn2COC(=O)OCCCCCCC)n1CCOC(C)C [Example 220]
- SGF ([1]; % remaining at 1 h in simulated gastric fluid, the 17th table): 77% remaining
- SIF ([2]; % remaining at 1 h in simulated intestinal fluid, the 17th table): 5% remaining
- human Plasma stability (Plasma Stability; % remaining at 1 h in human plasma, the 17th table): 55% remaining

SMILES: CC(C)OCCn1c(=S)[nH]c(=O)c2c1ccn2COC(=O)N(C)c1ccccc1Cl [Example 250]
- SGF ([1]; simulated gastric fluid, at 1 h): 99% remaining
- SIF ([2]; simulated intestinal fluid, at 1 h): 93% remaining
- human Plasma stability (Plasma Stability; human plasma, at 1 h): 100% remaining
